From ChEMBL document CHEMBL3045159, “Computational evaluation and experimental in vitro antibacterial, antifungal and antiviral activity of bis-Schiff bases of isatin and its derivatives” (Med Chem Res, 2013)
≈ marks a conversion by molar mass, not a printed value.

Key:
[1] = tested on: Human alphaherpesvirus 2; experiment: Antiviral activity against Human herpesvirus 2 strain G infected HEL cells; format: functional; conditions: Human alphaherpesvirus 2, strain G
[2] = Cytotoxicity against Chlorocebus aethiops (African green monkey) Vero cells; format: cell-based; conditions: chlorocebus sabaeus
[3] = tested on: Vaccinia virus; experiment: Antiviral activity against Vaccinia virus infected HEL cells; format: functional; conditions: Orthopoxvirus vaccinia
[4] = tested on: Saccharomyces cerevisiae; experiment: Antifungal activity against Saccharomyces cerevisiae ATCC 28383; format: functional
[5] = tested on: Punta Toro virus; experiment: Antiviral activity against Punta Toro virus infected Vero cells; format: functional
[6] = tested on: Mammalian orthoreovirus 1; experiment: Antiviral activity against Mammalian orthoreovirus 1 infected Vero cells; format: functional
[7] = tested on: Human alphaherpesvirus 1; experiment: Antiviral activity against thymidine kinase-deficient, acylcovir-resistant Human herpesvirus 1 strain KOS infected in HEL cells; format: functional; conditions: Human alphaherpesvirus 1, KOS
[8] = tested on: Coxsackievirus B4; experiment: Antiviral activity against Human coxsackievirus B4 infected Vero cells; format: functional; conditions: Enterovirus B
[9] = tested on: Staphylococcus aureus; experiment: Antibacterial activity against Staphylococcus aureus CIP 4.83; format: functional
[10] = Cytotoxicity against Homo sapiens (human) HeLa cells; format: cell-based
[11] = Cytotoxicity against Homo sapiens (human) HEL cells; format: cell-based
[12] = tested on: Vesicular stomatitis virus; experiment: Antiviral activity against Vesicular stomatitis virus infected HEL cells; format: functional
[13] = tested on: Vesicular stomatitis virus; experiment: Antiviral activity against Vesicular stomatitis virus infected HeLa; format: functional
[14] = tested on: Human alphaherpesvirus 1; experiment: Antiviral activity against Human herpesvirus 1 strain KOS infected in HEL cells; format: functional; conditions: Human alphaherpesvirus 1, KOS
[15] = tested on: Respiratory syncytial virus; experiment: Antiviral activity against Respiratory syncytial virus infected HeLa cells; format: functional; conditions: human respiratory syncytial virus
[16] = tested on: Candida albicans; experiment: Antifungal activity against Candida albicans CIP 1180-79; format: functional
[17] = tested on: Escherichia coli; experiment: Antibacterial activity against Escherichia coli CIP 54127; format: functional
[18] = tested on: Coxsackievirus B4; experiment: Antiviral activity against Human coxsackievirus B4 infected HeLa cells; format: functional; conditions: Enterovirus B
[19] = tested on: Sindbis virus; experiment: Antiviral activity against Sindbis virus infected Vero cells; format: functional
[20] = tested on: Human respirovirus 3; experiment: Antiviral activity against Human parainfluenza virus 3 infected Vero cells; format: functional

| SMILES | MIC [1] [µg/mL] | MCC [2] [µg/mL] | MIC [3] [µg/mL] | MIC [4] [µg/mL] | MIC [5] [µg/mL] | MIC [6] [µg/mL] | MIC [7] [µg/mL] | MIC [8] [µg/mL] | MIC [9] [µg/mL] | MCC [10] [µg/mL] | MCC [11] [µg/mL] | MIC [12] [µg/mL] | MIC [13] [µg/mL] | MIC [14] [µg/mL] | MIC [15] [µg/mL] | MIC [16] [µg/mL] | MIC [17] [µg/mL] | MIC [18] [µg/mL] | MIC [19] [µg/mL] | MIC [20] [µg/mL] |
| --- | --- | --- | --- | --- | --- | --- | --- | --- | --- | --- | --- | --- | --- | --- | --- | --- | --- | --- | --- | --- |
| O=C1Nc2ccccc2/C1=N\c1ccc(Oc2cccc(/N=C3/C(=O)Nc4ccccc43)c2)cc1 | > 80 | 400 | > 80 | < 50 | > 80 | > 80 | > 80 | > 80 | < 50 | ≥ 16 | 400 | > 80 | > 16 | > 80 | > 16 | < 50 | < 50 | > 16 | > 80 | > 80 |
| O=C1/C(=N/c2cccc(Cc3cccc(/N=C4/C(=O)N(Cc5ccccc5)c5ccccc54)c3)c2)c2ccccc2N1Cc1ccccc1 | > 40 | 200 | > 40 | < 50 | > 40 | > 40 | > 40 | > 40 | < 50 | 200 | 200 | > 40 | > 40 | > 40 | > 40 | < 50 | < 50 | > 40 | > 40 | > 40 |
| O=C1/C(=N\c2ccc(Cc3ccc(/N=C4\C(=O)N(Cc5ccccc5)c5ccccc54)cc3)cc2)c2ccccc2N1Cc1ccccc1 | > 8 | 40 | > 8 | < 50 | > 8 | > 8 | > 8 | > 8 | < 50 | 200 | 40 | > 8 | > 40 | > 8 | > 40 | < 50 | < 50 | > 40 | > 8 | > 8 |
| Nc1nc2c(ncn2COC(CO)CO)c(=O)[nH]1 [GANCICLOVIR] | 4 (≈ 15.7 µM) | – | > 100 | – | – | – | 12 (≈ 47 µM) | – | – | – | > 100 | > 100 | – | 0.48 (≈ 1.88 µM) | – | – | – | – | – | – |
| Cc1c(/N=C2/C(=O)Nc3ccccc32)cccc1/N=C1/C(=O)Nc2ccccc21 | > 80 | 400 | > 80 | < 100 | > 80 | > 80 | 16 (≈ 42.1 µM) | > 80 | < 100 | ≥ 400 | 400 | > 80 | > 400 | > 80 | > 400 | < 100 | < 100 | > 400 | > 80 | > 80 |
| O=C1Nc2ccc(F)cc2/C1=N/c1ccc(Oc2ccc(/N=C3\C(=O)Nc4ccc(F)cc43)cc2)cc1 | > 1.6 | 40 | > 1.6 | < 50 | > 8 | > 8 | > 1.6 | > 8 | < 50 | ≥ 16 | 8 | > 1.6 | > 16 | > 1.6 | > 16 | < 50 | < 50 | > 16 | > 8 | > 8 |
| Nc1nc2c(ncn2COCCO)c(=O)[nH]1 [ACYCLOVIR] | 20 (≈ 88.8 µM) | – | > 500 | – | – | – | 300 (≈ 1330 µM) | – | – | – | > 500 | > 500 | – | 2.4 (≈ 10.7 µM) | – | – | – | – | – | – |
| O=C1/C(=N\c2ccc(Oc3ccc(/N=C4\C(=O)N(Cc5ccccc5)c5ccccc54)cc3)cc2)c2ccccc2N1Cc1ccccc1 | > 80 | 80 | > 80 | < 50 | > 80 | > 80 | > 80 | > 80 | < 50 | 80 | 400 | > 80 | > 16 | > 80 | > 16 | < 50 | < 50 | > 16 | > 80 | > 80 |
| O=C1Nc2ccccc2/C1=N/c1ccc(C(=O)c2ccc(/N=C3\C(=O)Nc4ccccc43)cc2)cc1 | > 16 | ≥ 16 | > 16 | < 50 | > 16 | > 16 | > 16 | > 16 | < 50 | 80 | 80 | > 16 | 48 (≈ 102 µM) | > 16 | > 16 | < 50 | < 50 | > 16 | > 16 | > 16 |
| O=C1Nc2ccc(F)cc2/C1=N\c1cccc(Cc2cccc(/N=C3/C(=O)Nc4ccc(F)cc43)c2)c1 | > 16 | 80 | > 16 | < 50 | > 16 | > 16 | > 16 | > 16 | < 50 | 80 | 80 | > 16 | 9.6 (≈ 19.5 µM) | > 16 | > 16 | < 50 | < 50 | > 16 | > 16 | > 16 |
| O=C1Nc2ccc(F)cc2/C1=N/c1ccc(Cc2ccc(/N=C3\C(=O)Nc4ccc(F)cc43)cc2)cc1 | > 3.2 | ≥ 16 | > 3.2 | < 50 | > 16 | > 16 | > 3.2 | > 16 | < 50 | 80 | 16 | > 3.2 | > 16 | > 3.2 | > 16 | < 50 | < 50 | > 16 | > 16 | > 16 |
| Nc1ncnc2c1ncn2C[C@H](O)CO [(S)-DHPA] | – | 500 | – | – | – | 300 (≈ 1430 µM) | – | > 100 | – | > 500 | – | – | 500 (≈ 2390 µM) | – | > 500 | – | – | > 500 | > 100 | > 100 |
| O=c1[nH]c(=O)n([C@H]2C[C@H](O)[C@@H](CO)O2)cc1/C=C/Br [BRIVUDINE] | > 500 | 500 | 60 (≈ 180 µM) | – | > 100 | > 100 | 500 (≈ 1500 µM) | > 100 | – | 500 | > 500 | > 500 | > 500 | 0.16 (≈ 0.48 µM) | > 500 | – | – | > 500 | > 100 | > 100 |
| O=C1Nc2ccccc2/C1=N\c1cccc(Cc2cccc(/N=C3/C(=O)Nc4ccccc43)c2)c1 | > 16 | 80 | > 16 | < 50 | > 16 | > 16 | > 16 | > 16 | < 50 | ≥ 16 | 80 | > 16 | 9.6 (≈ 21 µM) | > 16 | > 16 | < 50 | < 50 | > 16 | > 16 | > 16 |
| O=C1Nc2ccccc2/C1=N\c1ccc(Cc2cccc(/N=C3/C(=O)Nc4ccccc43)c2)cc1 | > 16 | 80 | > 16 | < 50 | > 16 | > 16 | > 16 | > 16 | < 50 | ≥ 16 | 80 | > 16 | 3.2 (≈ 7.01 µM) | > 16 | > 16 | < 50 | < 50 | > 16 | > 16 | > 16 |
| NC(=O)c1ncn([C@@H]2O[C@H](CO)[C@@H](O)[C@H]2O)n1 [RIBAVIRIN] | > 500 | > 500 | 300 (≈ 1230 µM) | – | 60 (≈ 246 µM) | 300 (≈ 1230 µM) | > 500 | > 500 | – | > 500 | > 500 | > 500 | 60 (≈ 246 µM) | 500 (≈ 2050 µM) | 60 (≈ 246 µM) | – | – | > 500 | 300 (≈ 1230 µM) | 300 (≈ 1230 µM) |
| CCc1ccc2c(c1)/C(=N/c1c(CC)cc(Cc3cc(CC)c(/N=C4\C(=O)N(CC)c5ccc(CC)cc54)c(CC)c3Cl)c(Cl)c1CC)C(=O)N2CC | > 16 | 16 | > 16 | < 50 | > 3.2 | > 3.2 | > 16 | > 3.2 | < 50 | 16 | 80 | > 16 | > 3.2 | > 16 | > 3.2 | < 50 | < 50 | > 3.2 | > 3.2 | > 3.2 |
